Reference: PubChem BioAssay (NCI)
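Compound exposure: 48 hours, 5 concentrations, 96-well plates. TGI denotes the concentration required for complete inhibition of growth.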

Legend:
Assay in all cases: NCI anticancer screen, dose series, 48 h
SR leukemia = system: SR leukemia
UACC-62 melanoma = system: UACC-62 melanoma
SK-MEL-5 melanoma = system: SK-MEL-5 melanoma
SNB-19 CNS = system: SNB-19 CNS
M14 melanoma = system: M14 melanoma
NCI-H226 lung = system: NCI-H226 lung
OVCAR-3 ovarian = system: OVCAR-3 ovarian
K-562 leukemia = system: K-562 leukemia
MDA-MB-231 breast = system: MDA-MB-231 breast
HL-60(TB) leukemia = system: HL-60(TB) leukemia

| SMILES | TGI (SR leukemia) | TGI (UACC-62 melanoma) | TGI (SK-MEL-5 melanoma) | TGI (SNB-19 CNS) | TGI (M14 melanoma) | TGI (NCI-H226 lung) | TGI (OVCAR-3 ovarian) | TGI (K-562 leukemia) | TGI (MDA-MB-231 breast) | TGI (HL-60(TB) leukemia) |
| --- | --- | --- | --- | --- | --- | --- | --- | --- | --- | --- |
| O=[N+]([O-])c1ccc(-c2nc3ccccc3o2)cc1 | > 100 µM | > 100 µM | > 100 µM | > 100 µM | > 100 µM | > 100 µM | > 100 µM | > 100 µM |  |  |
| CN(C)CCCN1C(=O)N(CCCN(C)C)c2c3cc(O)ccc3nc3c([N+](=O)[O-])ccc1c23 |  | 27.3 µM | 30.4 µM | 23.8 µM | 79.1 µM | 61.7 µM | 67.6 µM | 23.7 µM | 28.3 µM |  |
| CN(NC(=O)/C(=C/C=C/c1ccccc1)NC(=O)c1ccccc1)C1=C(Cl)C(=O)[N+](c2ccccc2)=CC1 | 66.6 µM |  | 27.4 µM | 80.2 µM | 40.2 µM | 37.7 µM | 44.9 µM | 49.9 µM | 37.5 µM |  |
| O=C(NNc1ccc([N+](=O)[O-])cc1)C1OC(CO)C(O)C1O (stereo not given) |  | > 100 µM | > 100 µM | > 100 µM | > 100 µM | > 100 µM | > 100 µM | > 100 µM |  | > 100 µM |
| C[C@@H](CC(O)C(O)C(C)(C)O)C1CCC23CC12CCC1[C@@]2(C)CCC(=O)C(C)(C)C2CC(OC2OC(CO)C(O)C(O)C2O)[C@]13C (stereo not given in full) |  | > 10 µM | > 10 µM | > 10 µM | > 10 µM | > 10 µM | > 10 µM | > 10 µM | > 10 µM | > 10 µM |
| CC(=O)Nc1oc(C)nc1C#N | > 100 µM | > 100 µM | > 100 µM | > 100 µM | > 100 µM |  |  | > 100 µM | > 100 µM | > 100 µM |
| O=C1C(=O)C(CCCO)(CCCO)CCCCCCCCC1(CCCO)CCCO | > 100 µM | > 100 µM | > 100 µM | > 100 µM | > 100 µM | > 100 µM | > 100 µM | 69.6 µM |  | 29.9 µM |
| O=C(n1c(=O)n(-c2ccc([N+](=O)[O-])cc2)c(=O)n1C(=O)C(Cl)(Cl)Cl)C(Cl)(Cl)Cl |  | > 100 µM | > 100 µM | > 100 µM | > 100 µM | > 100 µM | > 100 µM |  | > 100 µM | > 100 µM |
| CC1=C(C(=O)OC(C)C)C(c2cccc([N+](=O)[O-])c2)C(C(=O)OC(CO[N+](=O)[O-])CO[N+](=O)[O-])=C(C)N1 (stereo not given) | 15.6 µM | 9.58 µM | 4.13 µM | 24.6 µM | 12.7 µM | 30.6 µM | > 22.1 µM | > 100 µM | > 20.7 µM |  |
| CCOC(=O)Cn1c(C)nc2nn(Cc3ccccc3)cc2c1=O |  | > 100 µM | > 100 µM | > 100 µM | > 100 µM | > 100 µM | > 100 µM | > 100 µM | > 100 µM |  |
| O=c1[nH]nc(Cc2ccc([N+](=O)[O-])cc2)[nH]1 | > 100 µM | > 100 µM | > 100 µM | > 100 µM | > 100 µM | > 100 µM | > 100 µM | > 100 µM |  | > 100 µM |
| Cc1cc(=O)[nH]c(S(=O)(=O)NC(=S)Nc2ccc(Br)cc2)n1 |  | > 100 µM | > 100 µM | > 100 µM | > 100 µM | > 100 µM | > 100 µM |  | > 100 µM | > 100 µM |
